Test results taken from ChEMBL document CHEMBL1139380, “Edaravone derivatives containing NO-donor functions” (J Med Chem, 2009).
Active and inactive are the calls of the source. The calls are words filed in the database; no cut-off is given here.

How the values were obtained:
[1] = octanol/water
Description: Lipophilicity, ionic log P by shake flask method

Liver microsomes [2] = system: Liver microsomes
Description: Antioxidant activity against Fe2SO4/ascorbate-induced lipid peroxidation in Wistar rat liver microsomal membrane by TBARS assay

physchem [3] = conditions: octanol/water, pH 7.4
physchem [4] = test: physchem
Description: Dissociation constant, pKa by potentiometric titration

physchem [5] = conditions: octanol/water
Description: Lipophilicity, neutral log P of the compound

Aorta [6] = test: tissue or blood; conditions: Rattus norvegicus, Wistar
Description: (§1) Vasodilation activity in Wistar rat aorta assessed as relaxation of phenylephrine-induced contraction

Liver microsomes [7] = test: Antioxidant activity against […]/ascorbate-induced lipid peroxidation in Wistar rat liver microsomal membrane at 05 to 15 uM by TBARS assay; assay type: functional; conditions: Microsome
Aorta [8] = system: Aorta
Description: as §1

Compound	logPi [1]	IC50 (Liver microsomes [2]) [µM]	logD (physchem [3])	pKa (physchem [4])	logP (physchem [5])	EC50 (Aorta [6]) [µM]	Activity (Liver microsomes [7])	EC50 (Aorta [8])
CC1=NN(c2ccc(OCCCCC(CO[N+](=O)[O-])O[N+](=O)[O-])cc2)C(=O)C1 (stereo not drawn)	0.05	2.9	2.54	7.15	3.1	0.68	–	–
CC1=NN(c2ccc(OCc3no[n+]([O-])c3C#N)cc2)C(=O)C1	-0.99	5.8	1.28	7.06	1.72	0.023	–	–
COc1no[n+]([O-])c1-c1ccccc1	–	–	–	–	2.47	5.6	inactive	–
COCCCO[N+](=O)[O-]	–	–	–	–	1.01	9.6	inactive	–
COCc1no[n+]([O-])c1C(N)=O	–	–	–	–	0.14	3.9	inactive	–
CC1=NN(c2ccc(OCCCOc3no[n+]([O-])c3S(=O)(=O)c3ccccc3)cc2)C(=O)C1	0.4	3.8	3.16	7.12	3.62	0.077	–	–
COc1ccc(N2N=C(C)CC2=O)cc1	–	20	0.77	7.06	1.19	–	–	Not Active
COCCCCCCO[N+](=O)[O-]	–	–	–	–	2.23	1.4	inactive	–
COCc1no[n+]([O-])c1C#N	–	–	–	–	0.83	0.0095	inactive	–
CC1=NN(c2ccc(OCc3no[n+]([O-])c3C(N)=O)cc2)C(=O)C1	–	7.9	0.48	7.08	0.92	2.8	–	–
CC1=NN(c2ccccc2)C(=O)C1 [EDARAVONE]	–	17	0.78	6.9	1.28	–	–	Not Active
CC1=NN(c2ccc(OCCCO[N+](=O)[O-])cc2)C(=O)C1	-1.07	3.4	1.59	7.11	1.9	1.1	–	–
CC1=NN(c2ccc(OCCCCCCO[N+](=O)[O-])cc2)C(=O)C1	0.15	2.1	2.67	7.12	3.34	0.98	–	–
CCOc1no[n+]([O-])c1S(=O)(=O)c1ccccc1	–	–	–	–	3.15	0.012	inactive	–
